Laboratory results reported in patent publication US20240199587A1, “HETEROCYCLIC COMPOUNDS” (Hoffmann-La Roche Inc., priority 2021, published 2024).

Target: T1, MAGL (Homo sapiens, UniProt Q99685)
T1 sequence (Q99685 1-303): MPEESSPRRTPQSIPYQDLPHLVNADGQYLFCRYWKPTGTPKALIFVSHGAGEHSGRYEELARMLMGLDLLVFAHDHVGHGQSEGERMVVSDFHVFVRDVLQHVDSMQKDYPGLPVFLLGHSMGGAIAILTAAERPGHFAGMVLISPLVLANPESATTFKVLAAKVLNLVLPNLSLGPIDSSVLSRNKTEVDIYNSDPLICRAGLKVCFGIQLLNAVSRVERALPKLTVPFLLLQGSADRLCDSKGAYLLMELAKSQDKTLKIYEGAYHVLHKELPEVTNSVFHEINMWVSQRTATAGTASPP
Assay: 2-AG assay (MAGL inhibitory activity, hydrolysis of 2-arachidonoylglycerol to arachidonic acid followed by mass spectrometry)
Format: biochemical
Conditions: 8 μM 2-arachidonoylglycerol, 15 min pre-incubation, 30 min incubation at RT, RapidFire MS readout
Text: Compounds of formula (I) were profiled for MAGL inhibitory activity by determining the enzymatic activity by following the hydrolysis of the natural substrate 2-arachidonoylglycerol (2-AG) resulting in arachidonic acid, which can be followed by mass spectrometry. This assay is hereinafter abbreviated “2-AG assay”.
Compounds of formula (I) were profiled for MAGL inhibitory activity by determining the enzymatic activity by following the hydrolysis of the natural substrate 2-arachidonoylglycerol (2-AG) resulting in arachidonic acid, which can be followed by mass spectrometry. This assay is hereinafter abbreviated “2-AG assay”. The 2-AG assay was carried out in 384 well polypropylene assay plates. […] Compound dilutions were added to MAGL protein in assay buffer (50 mM TRIS, 1 mM EDTA, 0.01% (v/v) Tween-20, 2.5% (v/v) DMSO). After shaking, the plate was incubated for 15 min at RT. To start the reaction, 2-arachidonoylglycerol in assay buffer was added. The final concentrations in the assay was […] for MAGL protein and 8 μM 2-arachidonoylglyerol. After shaking and 30 min incubation at RT, the reaction was quenched by the addition of two assay volumes of acetonitrile containing 4 μM of d8-arachidonic acid. The amount of arachidonic acid formed was traced by an online SPE system (Agilent Rapidfire) coupled to a triple quadrupole mass spectrometer. A C18 SPE cartridge (Agilent G9205A) was used in an acetonitrile/water liquid setup. The mass spectrometer was operated in negative electrospray mode following the mass transitions 303.1→259.1 for arachidonic acid and 311.1→267.0 for d8-arachidonic acid. The activity of the compounds was calculated based on the ratio of intensities [arachidonic acid/d8-arachidonic acid].

Row | Compound | IC50
1 | O=C(N1C[C@H]2CC(Oc3ccc(C(F)(F)F)cc3F)C[C@H]2C1)N1CC2(CC(n3cnc(C4CC4)n3)C2)C1 (mixture of isomers) [Example 89, [6-(3-cyclopropyl-1,2,4-triazol-1-yl)-2-azaspiro[3.3]heptan-2-yl]-[rac-(3aS,6aR)-5-[2-fluoro-4-(trifluoromethyl)phenoxy]-3,3a,4,5,6,6a-hexahydro-1H-cyclopenta[c]pyrrol-2-yl]methanone] | 2.5 nM
2 | O=C(N1C[C@H]2CC(Oc3ccc(F)cc3Cl)C[C@H]2C1)N1CC2(CC(n3cnc(C4CC4)c3)C2)C1 (mixture of isomers) [Example 91, [6-(4-cyclopropylimidazol-1-yl)-2-azaspiro[3.3]heptan-2-yl]-[rac-(3aR,6aS)-5-(2-chloro-4-fluoro-phenoxy)-3,3a,4,5,6,6a-hexahydro-1H-cyclopenta[c]pyrrol-2-yl]methanone] | 6.3 nM
3 | O=C(N1CC(c2ccc(N3CCC(O)(C(F)(F)F)C3)nc2)C1)N1CC2(CC(n3cnc(C4CC4)n3)C2)C1 (single isomer, unassigned) [Example 214] | 1.6 nM
4 | NC(=O)C(c1ccc(F)cc1)C1CCN(C(=O)N2CC3(CC(n4cnc(C5CC5)n4)C3)C2)CC1 (single isomer, unassigned) [Example 291] | 76.2 nM
5 | NC(=O)C(c1ccc(F)cc1)C1CCN(C(=O)N2CC3(CC(n4cnc(C5CC5)n4)C3)C2)CC1 (single isomer, unassigned) [Example 301] | 97.3 nM
6 | N=S(=O)(c1cccc(CC2CC3(C2)CN(C(=O)N2CC4(CC(n5cnc(C6(O)CC6)n5)C4)C2)C3)c1)C(F)(F)F (single isomer, unassigned) [Example 407, [6-[3-(1-hydroxycyclopropyl)-1,2,4-triazol-1-yl]-2-azaspiro[3.3]heptan-2-yl]-[6-[[3-(trifluoromethyl-sulfonimidoyl)phenyl]methyl]-2-azaspiro[3.3]heptan-2-yl]methanone] | 0.25 nM
7 | CS(=N)(=O)c1ccc(CC2CC3(C2)CN(C(=O)N2CC4(CC(n5cnc(C6CC6)n5)C4)C2)C3)cc1 (single isomer, unassigned) [Example 443, [6-(3-cyclopropyl-1,2,4-triazol-1-yl)-2-azaspiro[3.3]heptan-2-yl]-[6-[[4-(methylsulfonimidoyl)phenyl]methyl]-2-azaspiro[3.3]heptan-2-yl]methanone] | 4.31 nM
8 | NC(=O)[C@H]1CC(F)(F)CCN1c1ccc(C2CN(C(=O)N3CC4(CC(n5cnc(C6CC6)n5)C4)C3)C2)cc1 (single isomer, unassigned) [Example 493] | 1.28 nM
9 | NC(=O)[C@H]1CC(F)(F)CCN1c1ccc(C2CN(C(=O)N3CC4(CC(n5cnc(C6CC6)n5)C4)C3)C2)cc1 (single isomer, unassigned) [Example 494] | 2.34 nM
10 | O=C(N1CC(c2ccc(N3CCC(C(F)(F)F)C3)nc2)C1)N1CC2(CC(n3cnc(C4CC4)n3)C2)C1 (stereo in doubt) [Example 480, [6-(3-cyclopropyl-1,2,4-triazol-1-yl)-2-azaspiro[3.3]heptan-2-yl]-[3-[6-[(3S)-3-(trifluoromethyl)pyrrolidin-1-yl]-3-pyridyl]azetidin-1-yl]methanone] | 0.49 nM
11 | CC(C)(C)c1nc(-c2ccc(C(=O)N3CC4(CC(n5cnc(C6CC6)n5)C4)C3)cc2)no1 [Example 3, [4-(5-tert-butyl-1,2,4-oxadiazol-3-yl)phenyl]−[6-(3-cyclopropyl-1,2,4-triazol-1-yl)-2-azaspiro[3.3]heptan-2-yl]methanone] | 5.1 nM
12 | CC(C)(C)c1nc(-c2ccc(C(=O)N3CC4(CC(n5cnc(C(F)(F)F)n5)C4)C3)cc2)no1 [Example 4, (4-(5-(tert-butyl)-1,2,4-oxadiazol-3-yl)phenyl)(6-(3-(trifluoromethyl)-1H-1,2,4-triazol-1-yl)-2-azaspiro[3.3]heptan-2-yl)methanone] | 11.4 nM

More lines, in order of falling IC50, values ahead:

Row | IC50 | Compound
13 | 156 nM | O=C(N1C[C@H]2CC(Oc3ccc(F)cc3Cl)C[C@H]2C1)N1CC2(CC(n3cnnc3C3CC3)C2)C1 (mixture of isomers) [Example 178, [6-(3-cyclopropyl-1,2,4-triazol-4-yl)-2-azaspiro[3.3]heptan-2-yl]−[rac-(3aS,6aR)-5-(2-chloro-4-fluoro-phenoxy)-3,3a,4,5,6,6a-hexahydro-1H-cyclopenta[c]pyrrol-2-yl]methanone]
14 | 85.9 nM | CC(C)(C)c1nc(-c2ccc(C(=O)N3CC4(CC(n5ccc(C(F)(F)F)n5)C4)C3)cc2)no1 [Example 5, [4-(5-tert-butyl-1,2,4-oxadiazol-3-yl)phenyl]-[6-[3-(trifluoromethyl)pyrazol-1-yl]-2-azaspiro[3.3]heptan-2-yl]methanone]
15 | 25.7 nM | O=C(N1CC(c2nc(CC3(C(F)(F)F)CC3)no2)C1)N1CC2(CC(n3cnc(C4CC4)n3)C2)C1 [Example 2, [6-(3-cyclopropyl-1,2,4-triazol-1-yl)-2-azaspiro[3.3]heptan-2-yl]-[3-[3-[[1-(trifluoromethyl)cyclo-propyl]methyl]-1,2,4-oxadiazol-5-yl]azetidin-1-yl]methanone]
16 | 24.7 nM | O=C(N1CC2(CC(n3cnc(C4(O)CC4)n3)C2)C1)N1CC2(CC[C@H](Cc3ncc(F)cc3F)C2)C1 (stereo in doubt) [Example 351, [6-[3-(1-hydroxycyclopropyl)-1,2,4-triazol-1-yl]-2-azaspiro[3.3]heptan-2-yl]-[(6S)-6-[(3,5-difluoro-2-pyridyl)methyl]-2-azaspiro[3.4]octan-2-yl]methanone]
17 | 4.36 nM | O=C(N1CC2(CC(n3cnc(C4(O)CC4)n3)C2)C1)N1CC2(CC[C@@H](Cc3ncc(F)cc3F)C2)C1 (stereo in doubt) [Example 352, [6-[3-(1-hydroxycyclopropyl)-1,2,4-triazol-1-yl]-2-azaspiro[3.3]heptan-2-yl]-[(6R)-6-[(3,5-difluoro-2-pyridyl)methyl]-2-azaspiro[3.4]octan-2-yl]methanone]
18 | 2.22 nM | CS(=N)(=O)c1ccc(CC2CC3(C2)CN(C(=O)N2CC4(CC(n5cnc(C6CC6)n5)C4)C2)C3)cc1 (single isomer, unassigned) [Example 442, [6-(3-cyclopropyl-1,2,4-triazol-1-yl)-2-azaspiro[3.3]heptan-2-yl]-[6-[[4-(methylsulfonimidoyl)phenyl]methyl]-2-azaspiro[3.3]heptan-2-yl]methanone]
19 | 1.97 nM | CS(=N)(=O)c1cccc(CC2CC3(C2)CN(C(=O)N2CC4(CC(n5cnc(C6CC6)n5)C4)C2)C3)c1 (single isomer, unassigned) [Example 441, [6-(3-cyclopropyl-1,2,4-triazol-1-yl)-2-azaspiro[3.3]heptan-2-yl]-[6-[[3-(methylsulfonimidoyl)phenyl]methyl]-2-azaspiro[3.3]heptan-2-yl]methanone]
20 | 1.88 nM | CS(=N)(=O)c1cccc(CC2CC3(C2)CN(C(=O)N2CC4(CC(n5cnc(C6CC6)n5)C4)C2)C3)c1 (single isomer, unassigned) [Example 440, [6-(3-cyclopropyl-1,2,4-triazol-1-yl)-2-azaspiro[3.3]heptan-2-yl]-[6-[[3-(methylsulfonimidoyl)phenyl]methyl]-2-azaspiro[3.3]heptan-2-yl]methanone]
21 | 1.63 nM | N=S(=O)(c1cccc(CC2CC3(C2)CN(C(=O)N2CC4(CC(n5cnc(C6(O)CC6)n5)C4)C2)C3)c1)C(F)(F)F (single isomer, unassigned) [Example 406, [6-[3-(1-hydroxycyclopropyl)-1,2,4-triazol-1-yl]-2-azaspiro[3.3]heptan-2-yl]-[6-[[3-(trifluoromethyl-sulfonimidoyl)phenyl]methyl]-2-azaspiro[3.3]heptan-2-yl]methanone]
22 | 1.5 nM | O=C(N1C[C@H]2CC(Oc3ccc(F)c(Cl)c3)C[C@H]2C1)N1CC2(CC(n3cnc(C4CC4)n3)C2)C1 (mixture of isomers) [Example 126, [6-(3-cyclopropyl-1,2,4-triazol-1-yl)-2-azaspiro[3.3]heptan-2-yl]-[rac-(3aS,6aR)-5-(4-fluoro-3-chloro-phenoxy)-3,3a,4,5,6,6a-hexahydro-1H-cyclopenta[c]pyrrol-2-yl]methanone]
23 | 1 nM | O=C(N1C[C@H]2CC(Oc3ccc(F)cc3Cl)C[C@H]2C1)N1CC2(CC(n3cnc(C4CC4)n3)C2)C1 (mixture of isomers) [Example 93, [6-(3-cyclopropyl-1,2,4-triazol-1-yl)-2-azaspiro[3.3]heptan-2-yl]-[rac-(3aR,6aS)-5-(2-chloro-4-fluoro-phenoxy)-3,3a,4,5,6,6a-hexahydro-1H-cyclopenta[c]pyrrol-2-yl]methanone]
24 | 0.1 nM | O=C(N1CC(c2ccc(C3(C(F)(F)F)CC3)cc2)C1)N1CC2(CC(n3cnc(C4CC4)n3)C2)C1 [Example 1, (6-(3-cyclopropyl-1H-1,2,4-triazol-1-yl)-2-azaspiro[3.3]heptan-2-yl)(3-(4-(1-(trifluoromethyl)cyclopropyl)phenyl)azetidin-1-yl)methanone]
